Assays:
Experiment in all cases: greenhouse post-emergence herbicidal test
Format in all cases: in vivo
Veronica spp. = conditions: VERSS, 100 = complete destruction, 0 = no damage
Description: (§1) The seeds of the test plants were sown separately for each species. For the post-emergence treatment, the test plants were first grown to a plant height of from 3 to 15 cm, depending on plant habit, and only then treated with the active ingredients which had been suspended or emulsified in water. For this purpose, the test plants were either sown directly and grown in the same containers, or they were first grown separately as seedlings and transplanted into the test containers a few days prior to treatment. The rate of application for the post-emergence treatment was 0.0313 or 0.0156 kg of a.s./ha. Dependingon the species, the plants were kept at from 10-25° C. or 20-35° C. The test period extended over 2 to 4 weeks. During this time, the plants were tended, and their response to the individual treatments was evaluated. Evaluation was carried out using a scale from 0 to 100. 100 means no emergence of the plants, or complete destruction of at least the ariel plants, and 0 means no damage or normal course of growth. The plants used in the experiments belonged to the following species: [table]

Galium aparine = conditions: GALAP, 100 = complete destruction, 0 = no damage
Description: as §1

Polygonum persicaria = conditions: POLPE, 100 = complete destruction, 0 = no damage
Description: as §1

Abutilon theoprasti = conditions: ABUTH, 100 = complete destruction, 0 = no damage
Description: as §1

Chenopodium album = conditions: CHEAL, 100 = complete destruction, 0 = no damage
Description: as §1

Solanum nigrum = conditions: SOLNI, 100 = complete destruction, 0 = no damage
Description: as §1

**Q.** Which results are given for `CON=Cc1cc(N2C(=O)C3COCNN3C2=O)c(F)cc1Cl` (stereo not drawn) [Ex. 1d, 8-(4′-chloro-2′-fluoro-5′-methoxyiminomethylphenyl)-4-oxa-7,9-dioxo-1,2,8-triaza[4.3.0.]nonane]?
**A.** herbicidal activity, evaluation on a scale from 0 to 100 (Veronica spp.; 0.0156 kg of a.s./ha): 100; herbicidal activity, evaluation on a scale from 0 to 100 (Veronica spp.; 0.0313 kg of a.s./ha): 100; herbicidal activity, evaluation on a scale from 0 to 100 (Galium aparine; 0.0156 kg of a.s./ha): 98; herbicidal activity, evaluation on a scale from 0 to 100 (Galium aparine; 0.0313 kg of a.s./ha): 98; herbicidal activity, evaluation on a scale from 0 to 100 (Polygonum persicaria; 0.0156 kg of a.s./ha): 98; herbicidal activity, evaluation on a scale from 0 to 100 (Polygonum persicaria; 0.0313 kg of a.s./ha): 98; herbicidal activity, evaluation on a scale from 0 to 100 (Abutilon theoprasti; 0.0156 kg of a.s./ha): 100; herbicidal activity, evaluation on a scale from 0 to 100 (Abutilon theoprasti; 0.0313 kg of a.s./ha): 100; herbicidal activity, evaluation on a scale from 0 to 100 (Chenopodium album; 0.0156 kg of a.s./ha): 98; herbicidal activity, evaluation on a scale from 0 to 100 (Chenopodium album; 0.0313 kg of a.s./ha): 98; herbicidal activity, evaluation on a scale from 0 to 100 (Solanum nigrum; 0.0156 kg of a.s./ha): 100; herbicidal activity, evaluation on a scale from 0 to 100 (Solanum nigrum; 0.0313 kg of a.s./ha): 100

Reference: patent US6525000B1, “Method for producing anellated triazoles and new anellated triazoles and their use” (BASF Aktiengesellschaft, priority 1998, dated 2003)
